{"source": "patent US20120122820A1", "about": "“PRODRUGS AND THE USE THEREOF” (Bayer Schering Pharma Aktiengesellschaft, priority 2007, published 2012)", "key": {"[1]": {"assay": "Stability in buffer at various pH values", "format": "physicochemical", "protocol": "0.3 mg of the test substance is weighed into a 2 ml HPLC vial and 0.5 ml of acetonitrile or acetonitrile/DMSO (9:1) is added. The substance is dissolved by putting the sample vessel in an ultrasonic bath for about 10 seconds. Then 0.5 ml of the respective (buffer) solution is added, and the sample is again treated in the ultrasonic bath.\n• pH 4: 1 liter of Millipore water is adjusted to pH 4.0 with 1 N hydrochloric acid; • pH 5: 0.096 mol of citric acid and 0.2 mol of sodium hydroxide ad 1 liter of water; • pH 7.4: 90.0 g of sodium chloride, 13.61 g of potassium dihydrogen phosphate and 83.35 g of 1 N sodium hydroxide solution are made up to 1 liter with water; this solution is then further diluted 1:10 with Millipore water. • pH 8: 0.013 mol of borax and 0.021 mol of hydrochloric acid ad 1 liter of water.\n5 μl portions of the sample solution are analyzed by HPLC for their content of unchanged test substance, and of parent substance (A) produced, every hour over a period of 24 hours at 37° C. The percentage areas of the appropriate peaks are used for quantification.\nHPLC method for Examples 1-21:\nAgilent 1100 with DAD (G1314A), binary pump (G1312A), autosampler (G1329A), column oven (G1316A), thermostat (G1330A); column: Kromasil 100 C18, 60 mm×2.1 mm, 3.5 μm; column temperature: 30° C.; eluent A: water+5 ml of perchloric acid/liter, eluent B: acetonitrile; gradient: 0-1.0 min 98% A, 2% B; 1.0-9.0 min 2% A, 98% B; 9.0-13.0 min 2% A, 98% B; 13.0-13.5 min 98% A, 2% B; 13.5-15.0 min 98% A, 2% B; flow rate: 0.75 ml/min; UV detection: 210 nm.\nHPLC method for Examples 22-40:\nThe ratios of the peak areas (F) at the respective time points in relation to the peak areas at the starting time are shown in Table 3 for representative exemplary embodiments: […]"}, "[2]": {"assay": "Determination of the solubility (24 h shaking at room temperature, ultracentrifugation, HPLC)", "format": "physicochemical", "conditions": "thermodynamic from solid", "protocol": "The test substance is suspended in water or dilute hydrochloric acid (pH 4) [Examples 1-21] or in 5% strength aqueous dextrose solution [Examples 22-40]. This suspension is shaken at room temperature for 24 h. After ultracentrifugation at 224 000 g for 30 min, the supernatant is diluted with DMSO and analyzed by HPLC. A two-point calibration plot of the test compound in DMSO is used for quantification.\nAgilent 1100 with DAD (G1315A), quat. pump (G1311A), autosampler CTC HTS PAL, degasser (G1322A) and column thermostat (G1316A); column: Phenomenex Gemini C18, 5 μm, 50 mm×2 mm; temperature: 40° C.; eluent A: water/phosphoric acid pH 2, eluent B: acetonitrile; flow rate: 0.7 ml/min; gradient: 0-0.5 min 85% A, 15% B; ramp 0.5-3 min 10% A, 90% B; 3-3.5 min 10% A, 90% B; ramp 3.5-4 min 85% A, 15% B; 4-5 min 85% A, 15% B.\nAgilent 1100 with DAD (G1315A), quat. pump (G1311A), autosampler CTC HTS PAL, degasser (G1322A) and column thermostat (G1316A); column: VDSoptilab Kromasil 100 C18, 3.5 μm, 60 mm×2.1 mm; temperature: 30° C.; eluent A: water+5 ml of perchloric acid/liter, eluent B: acetonitrile; flow rate: 0.75 ml/min; gradient: 0-0.5 min 98% A, 2% B; ramp 0.5-4.5 min 10% A, 90% B; 4.5-6 min 10% A, 90% B; ramp 6.5-6.7 min 98% A, 2% B; 6.7-7.5 min 98% A, 2% B."}, "[3]": {"tested_on": "heart rate of anesthetized rats", "assay": "Influence on the heart rate of anesthetized rats", "format": "in vivo", "conditions": "maximum decrease in the first 30 min after i.v. bolus of 100 μg/kg of (A) or equivalent dosages; anesthetized male Wistar rats", "protocol": "Male Wistar rats with a body weight above 250 g are employed. In the night before the experiment, the animals receive no feed but still have free access to drinking water. Preparation and investigations are carried out under Trapanal® anesthesia (100 mg/kg i.p.). Injection and infusion take place through a catheter in the jugular vein, and the blood pressure is recorded via a catheter in the femoral artery (transducer: Braun, Melsungen). After the preparation, the animals are connected to a continuous infusion of physiological saline solution to compensate fluid losses. Test substance or placebo solution are administered intravenously as bolus after an equilibration time of about 1 h. Heart rate and arterial blood pressure are recorded during the equilibration and over a period of at least 30 min after the bolus injection with the aid of a digital evaluation program.\nTable 5 lists the maximum heart rate decrease in the first 30 min after an i.v. bolus of 100 μg/kg of the active substance (A) or of equivalent dosages of representative exemplary embodiments: […]"}, "[4]": {"assay": "i.v. pharmacokinetics in Wistar rats", "format": "in vivo", "conditions": "after i.v. bolus administration, male Wistar rats", "protocol": "(§1) On the day before administration of the substance, a catheter for obtaining blood is implanted in the jugular vein of the experimental animals (male Wistar rats, body weight 200-250 g) under Isofluran® anesthesia.\n(§2) On the day of the experiment, a defined dose of the test substance is administered as solution into the tail vein using a Hamilton® glass syringe (bolus administration, duration of administration <10 s). Blood samples (8-12 time points) are taken through the catheter sequentially over the course of 24 h after administration of the substance. Plasma is obtained by centrifuging the samples in heparinized tubes. Acetonitrile is added to a defined plasma volume per time point to precipitate proteins. After centrifugation, test substance and, where appropriate, known cleavage products of the test substance in the supernatant are determined quantitatively using a suitable LC/MS-MS method.\nThe measured plasma concentrations are used to calculate pharmacokinetic parameters of the test substance and of the active ingredient compound (A) liberated therefrom, such as AUC, Cmax, T1/2 (half-life) and CL (clearance)."}, "[5]": {"assay": "Oral pharmacokinetics in Wistar rats", "format": "in vivo", "conditions": "after oral administration (gavage), male Wistar rats", "protocol": "as §1\nas §2, with “stomach by gavage.” for “tail vein using a Hamilton® glass syringe (bolus administration, duration of administration <10 s).”\nThe measured plasma concentrations are used to calculate pharmacokinetic parameters of the test substance and of the active ingredient compound (A) liberated therefrom, such as AUC, Cmax, T1/2 (half-life)."}}, "note": "Counter-ions that a name gives are not always drawn."}
{"molecule": "CN(C)CC(=O)OCCOc1ccc(-c2c(C#N)c(N)nc(SCc3csc(-c4ccc(Cl)cc4)n3)c2C#N)cc1", "note": "[Example 15, 2-{4-[2-Amino-6-({[2-(4-chlorophenyl)-1,3-thiazol-4-yl]methyl}thio)-3,5-dicyanopyridin-4-yl]-phenoxy}ethyl (N,N-dimethyl)glycinate]", "values": [{"measurement": "% test substance after 4 h [F(t = 4 h) × 100/F(t = 0 h)]", "setting": "[1]; pH 4, 37° C.", "result": 93, "unit": "%"}, {"measurement": "% test substance after 24 h [F(t = 24 h) × 100/F(t = 0 h)]", "setting": "[1]; pH 4, 37° C.", "result": 91, "unit": "%"}, {"measurement": "% test substance after 4 h [F(t = 4 h) × 100/F(t = 0 h)]", "setting": "[1]; pH 8, 37° C.", "result": 90, "unit": "%"}, {"measurement": "% test substance after 24 h [F(t = 24 h) × 100/F(t = 0 h)]", "setting": "[1]; pH 8, 37° C.", "result": 76, "unit": "%"}, {"measurement": "solubility at 24 h", "setting": "[2]; aqueous buffer, dilute hydrochloric acid (pH 4)", "result": 240, "unit": "µg/mL"}, {"measurement": "Heart rate decrease", "setting": "[3]", "result": 21, "unit": "%"}, {"measurement": "Detectability of the test substance (prodrug) in plasma", "setting": "[4]", "result": "no longer detectable in plasma even at the first measurement point"}, {"measurement": "Detectability of the test substance (prodrug) in plasma", "setting": "[5]", "result": "no longer detectable in plasma even at the first measurement point"}]}
{"molecule": "N#Cc1c(N)nc(SCc2csc(-c3ccc(Cl)cc3)n2)c(C#N)c1-c1ccc(OCCOC(=O)[C@@H](N)CCCN)cc1", "note": "[Example 22, 2-{4-[2-Amino-6-({[2-(4-chlorophenyl)-1,3-thiazol-4-yl]methyl}thio)-3,5-dicyanopyridin-4-yl]-phenoxy}ethyl L-ornithinate dihydrochloride]", "values": [{"measurement": "% test substance after 4 h [F(t = 4 h) × 100/F(t = 0 h)]", "setting": "[1]; pH 4, 37° C.", "result": 100, "unit": "%"}, {"measurement": "% test substance after 24 h [F(t = 24 h) × 100/F(t = 0 h)]", "setting": "[1]; pH 4, 37° C.", "result": 100, "unit": "%"}, {"measurement": "% test substance after 4 h [F(t = 4 h) × 100/F(t = 0 h)]", "setting": "[1]; pH 7.4, 37° C.", "result": 0, "unit": "%"}, {"measurement": "% test substance after 24 h [F(t = 24 h) × 100/F(t = 0 h)]", "setting": "[1]; pH 7.4, 37° C.", "result": 0, "unit": "%"}, {"measurement": "solubility at 24 h", "setting": "[2]; saline or isotonic, 5% strength aqueous dextrose solution", "result": "> 500", "unit": "µg/mL"}, {"measurement": "Heart rate decrease", "setting": "[3]", "result": 13, "unit": "%"}, {"measurement": "Detectability of the test substance (prodrug) in plasma", "setting": "[4]", "result": "no longer detectable in plasma even at the first measurement point"}, {"measurement": "Detectability of the test substance (prodrug) in plasma", "setting": "[5]", "result": "no longer detectable in plasma even at the first measurement point"}]}
